Assay results: the supplement of paper PMC10307832

Legend:
Assay in all cases: relative viability (nuclei count vs DMSO), 5 days (fraction); higher = more cells survive
[1] = compound: CCn1c(-c2nonc2N)nc2cnc(Oc3cccc(NC(=O)c4ccc(OCCN5CCOCC5)cc4)c3)cc21 + COc1cc2c(Oc3ccc(NC(=O)C4(C(=O)Nc5ccc(F)cc5)CC4)cc3F)ccnc2cc1OCCCN1CCOCC1 [Foretinib] (partner 0.25 µM)
Summary of the method: (§1)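 Values are medians from duplicate plates. Each reflects relative viability, defined as the nuclei count of treated wells over that of vehicle wells. Lung cancer cell lines in 1536-well plates were pin-tool dosed one day after seeding with one drug alone or with a fixed anchor-drug dose plus five library-drug doses (not always all listed) in √10 steps, then fixed, stained and imaged at 4× after 5 days.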

Mirin + Bortezomib = compound: N=C1NC(=O)/C(=C/c2ccc(O)cc2)S1 [Mirin] + CC(C)C[C@H](NC(=O)[C@H](Cc1ccccc1)NC(=O)c1cnccn1)B(O)O [Bortezomib] (partner 0.002 µM)
Summary of the method: as §1

[2] = compound: CCC1=CN=CN=C1N2CCN(CC2)CC3=NC4=C(N3)C=C(C=C4)C(F)(F)F + COc1cc2c(Oc3ccc(NC(=O)C4(C(=O)Nc5ccc(F)cc5)CC4)cc3F)ccnc2cc1OCCCN1CCOCC1 [Foretinib] (partner 0.25 µM)
Summary of the method: as §1

Mirin + Luminespib = compound: N=C1NC(=O)/C(=C/c2ccc(O)cc2)S1 [Mirin] + CCNC(=O)c1noc(-c2cc(C(C)C)c(O)cc2O)c1-c1ccc(CN2CCOCC2)cc1 [Luminespib] (partner 0.01 µM)
Summary of the method: as §1

Cell Line | relative viability ([1]; first compound 0.04 µM) | relative viability ([1]; first compound 0.1265 µM) | relative viability ([1]; first compound 0.4 µM) | relative viability ([1]; first compound 1.265 µM) | relative viability ([1]; first compound 4 µM) | relative viability (Mirin + Bortezomib; first compound 0.25 µM) | relative viability (Mirin + Bortezomib; first compound 0.7906 µM) | relative viability (Mirin + Bortezomib; first compound 2.5 µM) | relative viability (Mirin + Bortezomib; first compound 7.906 µM) | relative viability (Mirin + Bortezomib; first compound 25 µM) | relative viability ([2]; first compound 0.04 µM) | relative viability ([2]; first compound 0.1265 µM) | relative viability ([2]; first compound 0.4 µM) | relative viability ([2]; first compound 1.265 µM) | relative viability ([2]; first compound 4 µM) | relative viability (Mirin + Luminespib; first compound 0.25 µM) | relative viability (Mirin + Luminespib; first compound 0.7906 µM) | relative viability (Mirin + Luminespib; first compound 2.5 µM) | relative viability (Mirin + Luminespib; first compound 7.906 µM) | relative viability (Mirin + Luminespib; first compound 25 µM)
NCI-H1355 | 1.05 | 0.948 | 1.03 | 0.955 | 1 | 1.3 | 1.19 | 1.16 | 1.23 | 1.38 | 1 | 0.875 | 0.85 | 0.946 | 0.793 | 0.724 | 0.855 | 0.764 | 0.689 | 0.548
EKVX | 0.889 | 0.686 | 0.708 | 0.445 | 0.735 | 1.05 | 0.979 | 1 | 1.03 | 1.04 | 0.748 | 0.675 | 0.753 | – | 0.779 | 0.868 | 0.754 | 0.907 | 0.74 | 0.886
NCI-H460 | 1.06 | 0.902 | 0.978 | 0.426 | 0.16 | 1.22 | 1.2 | 1.21 | 1.12 | 1.15 | 1.05 | 1.03 | 0.999 | 1.06 | 0.964 | 0.0342 | 0.0263 | 0.0361 | 0.0242 | 0.0254
NCI-H1975 | 0.869 | 0.717 | 0.664 | 0.412 | 0.281 | 0.375 | 0.366 | 0.468 | 0.498 | 0.321 | 1 | 0.945 | 0.986 | 0.829 | 0.803 | 0.201 | 0.254 | 0.16 | 0.306 | 0.125
HCC-78 | 0.596 | 0.584 | – | 0.64 | 0.713 | 0.449 | 1.03 | 0.524 | 0.397 | 0.424 | 0.585 | 0.631 | 0.491 | 0.51 | 0.539 | – | – | – | – | –
NCI-H2085 | 1.2 | 1.15 | 0.93 | 0.858 | 0.806 | 1.13 | 0.972 | 1.18 | 0.975 | 1.02 | 0.971 | 1.13 | 0.792 | 0.76 | 0.959 | 0.422 | 0.343 | 0.46 | 0.473 | 0.453
H3255 | 1.22 | 0.834 | 0.679 | 0.668 | 0.642 | 0.778 | 0.725 | 0.837 | 0.698 | 0.769 | 0.828 | 0.872 | 0.894 | 0.739 | 0.776 | 0.825 | 0.79 | 0.943 | 0.712 | 0.821
NCI-H2126 | 1.22 | 1.08 | – | – | 1.29 | 1.12 | 1.11 | 1.12 | 1.07 | 1.2 | 1.15 | 1.26 | 1.06 | 0.986 | 1.17 | 0.86 | 0.881 | 0.934 | 0.9 | 0.898
LC-2-ad | 1 | 0.927 | 0.784 | 0.529 | 0.687 | 0.996 | 1.07 | 1.03 | 0.907 | 1.03 | 0.927 | 0.88 | 0.922 | 0.803 | 0.857 | 1.02 | 0.837 | 1.05 | 0.968 | 0.721
RERF-LC-KJ | 1.02 | 0.829 | 0.74 | 0.532 | 0.532 | 1.22 | 1.25 | 1.07 | 1.18 | 1.2 | 0.763 | 0.755 | 0.82 | 0.851 | 0.82 | 1.25 | 1.25 | 1.36 | 1.2 | 1.18
EBC-1 | 0.0933 | 0.0951 | 0.0949 | 0.0808 | 0.0597 | 0.596 | 0.629 | 0.55 | 0.535 | 0.316 | 0.107 | 0.0909 | 0.0948 | 0.0919 | 0.112 | – | – | – | – | –
HCC-15 | 1.13 | 0.951 | 0.998 | – | 0.906 | 1.02 | 0.928 | 1.03 | 0.893 | 0.949 | 1.02 | 1.01 | 1.03 | 1 | 1.01 | 0.353 | 0.391 | 0.289 | 0.452 | 0.274
NCI-H1563 | 0.792 | 0.786 | 0.769 | 0.85 | 0.666 | 1.07 | 1.11 | 0.943 | 0.8 | 0.812 | 0.961 | 1.01 | 0.938 | 0.844 | 0.917 | 0.54 | 0.6 | 0.476 | 0.589 | 0.5
COR-L 105 | 1.25 | 1 | 0.874 | 0.575 | 0.308 | 0.866 | 0.759 | 0.903 | 0.992 | 0.769 | 1.25 | 0.941 | 1.04 | 0.941 | 1.16 | 0.741 | 0.852 | 0.692 | 0.51 | 0.544
NCI-H596 | 0.961 | 0.873 | 0.814 | 0.742 | 0.767 | 1.12 | – | 0.982 | 1 | 0.905 | 0.861 | 1.13 | 0.818 | – | 0.966 | 0.931 | 0.984 | 1.06 | 0.955 | 0.905
LU99A | 0.872 | 0.886 | 0.853 | 0.493 | 0.476 | 1.07 | 0.93 | 1.17 | 1 | 0.968 | 0.744 | 0.751 | 0.771 | 0.804 | 0.87 | 0.199 | 0.207 | 0.225 | 0.209 | 0.211
NCI-H1666 | 1.1 | 1.11 | 1.2 | 0.767 | 0.442 | 0.883 | 0.873 | 0.976 | 0.513 | 0.479 | 0.88 | 0.923 | 0.97 | 0.882 | 0.889 | 1.03 | 1.13 | 1.01 | 0.936 | 0.949
